In patent US20240018146A1, “COMPOSITIONS AND METHODS OF USING THE SAME FOR TREATMENT OF NEURODEGENERATIVE AND MITOCHONDRIAL DISEASE” (MITOKININ, INC., priority 2020, published 2024):
pEC50: −log10 of the molar value.

Key:
[1] = tested on: HeLa MKYP cells; assay: Human mitophagy assay (HeLa mKeima assay, FACS); assay type: cell-based; details: Homo sapiens, HeLa; read-out: Mitophagy induction EC50
Method in brief: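 Mitophagy, read by FACS as the share of cells showing the lysosomal mtKeima emission shift, followed 6 h of 1 uM FCCP/oligomycin stimulation. Before that, HeLa MKYP cells spent 16 h with compound over a concentration range.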

[2] = tested on: HeLa MKYP cells; assay: Cell death measured by DAPI staining, with 1 μM FCCP/oligomycin or no toxin (no FO); assay type: cell-based
Method in brief: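 Cell death was read by DAPI staining after 6–6.5 h compound exposure in HeLa MKYP cells, either with 1 μM FCCP/oligomycin or without toxin. H2O2 served as the cell-death control.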

## Fc1ccc2c(c1)OC[C@H](N1CCOCC1)[C@H]2Nc1ncnc2[nH]c(C3CC3)cc12 [EP-0040500]
[1]
  pEC50: 6.00
[2]
  Highest safe dose (cytotoxicity; no FO; safe means DAPI+ <20%): 25.0 µM
  Max % death with 1 μM FO: 8.6%

## C[C@@]12COC[C@]1(C)CN(C1CCc3ccccc3C1Nc1ncnc3[nH]c(C(F)(F)F)cc13)C2 (stereo partly drawn) [EP-0040523]
[1]
  pEC50: 5.56
[2]
  Highest safe dose (cytotoxicity; no FO; safe means DAPI+ <20%): 25.0 µM
  Max % death with 1 μM FO: 39.0%

## C[C@@]12COC[C@]1(C)CN(C1COc3ccccc3C1Nc1ncnc3[nH]c(C(F)(F)F)cc13)C2 (stereo partly drawn) [EP-0040524]
[1]
  pEC50: 5.57
[2]
  Highest safe dose (cytotoxicity; no FO; safe means DAPI+ <20%): 25.0 µM
  Max % death with 1 μM FO: 27.7%

## C[C@@]12COC[C@]1(C)CN(C1CCc3ccccc3C1Nc1ncnc3[nH]c(C4CC4)cc13)C2 (stereo partly drawn) [EP-0040542]
[1]
  pEC50: 5.84
[2]
  Highest safe dose (cytotoxicity; no FO; safe means DAPI+ <20%): 25.0 µM
  Max % death with 1 μM FO: 15.3%

## FC(F)(F)c1cc2c(NC3c4ccccc4OCC3N3CCC4(CCOC4)CC3)ncnc2[nH]1 (stereo not drawn) [EP-0040545]
[1]
  pEC50: < 4.60
[2]
  Highest safe dose (cytotoxicity; no FO; safe means DAPI+ <20%): 25.0 µM
  Max % death with 1 μM FO: 3.7%

## FC(F)(F)c1cc2c(N[C@H]3c4ccccc4CC[C@H]3C3CCOCC3)ncnc2[nH]1 [EP-0040557]
[1]
  pEC50: < 4.60
[2]
  Highest safe dose (cytotoxicity; no FO; safe means DAPI+ <20%): 25.0 µM
  Max % death with 1 μM FO: 2.7%

## FC(F)(F)c1cc2c(N[C@@H]3c4ccccc4CC[C@@H]3C3CCOCC3)ncnc2[nH]1 [EP-0040558]
[1]
  pEC50: < 4.60
[2]
  Highest safe dose (cytotoxicity; no FO; safe means DAPI+ <20%): 25.0 µM
  Max % death with 1 μM FO: 3.0%

## FC(F)(F)c1cc2c(N[C@H]3c4ccccc4OC[C@H]3C3CCOCC3)ncnc2[nH]1 [EP-0040586]
[1]
  pEC50: < 4.60
[2]
  Highest safe dose (cytotoxicity; no FO; safe means DAPI+ <20%): 8.3 µM
  Max % death with 1 μM FO: 16.9%

## FC(F)(F)c1cc2c(NC3c4ccccc4CCC3N3CCC4(CCOC4)CC3)ncnc2[nH]1 (stereo not drawn) [EP-0040589]
[1]
  pEC50: < 4.60
[2]
  Highest safe dose (cytotoxicity; no FO; safe means DAPI+ <20%): 25.0 µM
  Max % death with 1 μM FO: 19.4%

## c1ccc2c(c1)CC[C@@H](C1CCOCC1)[C@H]2Nc1ncnc2[nH]c(C3CC3)cc12 [EP-0040626]
[1]
  pEC50: 5.15
[2]
  Highest safe dose (cytotoxicity; no FO; safe means DAPI+ <20%): 25.0 µM
  Max % death with 1 μM FO: 29.3%

## c1ccc2c(c1)CC[C@H](C1CCOCC1)[C@@H]2Nc1ncnc2[nH]c(C3CC3)cc12 [EP-0040627]
[1]
  pEC50: 4.61
[2]
  Highest safe dose (cytotoxicity; no FO; safe means DAPI+ <20%): 25.0 µM
  Max % death with 1 μM FO: 4.8%

## [O-][S+]1CCN(C2CCc3ccccc3C2Nc2ncnc3[nH]c(C4CC4)cc23)CC1 (stereo not drawn) [EP-0040665]
[1]
  pEC50: 5.01
[2]
  Highest safe dose (cytotoxicity; no FO; safe means DAPI+ <20%): 25.0 µM
  Max % death with 1 μM FO: 3.7%

## Fc1ccc2c(c1)CC[C@@H](N1C[C@@H]3COC[C@H]3C1)[C@@H]2Nc1ncnc2[nH]c(C(F)(F)F)cc12 [EP-0040696]
[1]
  pEC50: 4.63
[2]
  Highest safe dose (cytotoxicity; no FO; safe means DAPI+ <20%): 25.0 µM
  Max % death with 1 μM FO: 14.9%

## c1ccc2c(c1)CC[C@@H](C1CCOCC1)[C@@H]2Nc1ncnc2[nH]c(C3CC3)cc12 [EP-0040727]
[1]
  pEC50: 5.55
[2]
  Highest safe dose (cytotoxicity; no FO; safe means DAPI+ <20%): 25.0 µM
  Max % death with 1 μM FO: 7.7%

## c1ccc2c(c1)OC[C@H](C1CCOCC1)[C@H]2Nc1ncnc2[nH]c(C3CC3)cc12 [EP-0040728]
[1]
  pEC50: 5.03
[2]
  Highest safe dose (cytotoxicity; no FO; safe means DAPI+ <20%): 25.0 µM
  Max % death with 1 μM FO: 3.7%

## c1ccc2c(c1)OC[C@@H](C1CCOCC1)[C@H]2Nc1ncnc2[nH]c(C3CC3)cc12 [EP-0040730]
[1]
  pEC50: < 4.60
[2]
  Highest safe dose (cytotoxicity; no FO; safe means DAPI+ <20%): 25.0 µM
  Max % death with 1 μM FO: 8.3%

## c1ccc2c(c1)OC[C@H](C1CCOCC1)[C@@H]2Nc1ncnc2[nH]c(C3CC3)cc12 [EP-0040731]
[1]
  pEC50: < 4.60
[2]
  Highest safe dose (cytotoxicity; no FO; safe means DAPI+ <20%): 25.0 µM
  Max % death with 1 μM FO: 2.7%

## c1ccc2c(c1)CC[C@@H](N1C[C@H]3COC[C@@H]3C1)[C@@H]2Nc1ncnc2[nH]c(C3CC3)cc12 [EP-0040767]
[1]
  pEC50: < 4.60
[2]
  Highest safe dose (cytotoxicity; no FO; safe means DAPI+ <20%): 25.0 µM
  Max % death with 1 μM FO: 7.9%

## COC1CN([C@@H]2CCc3ccccc3[C@H]2Nc2ncnc3[nH]c(C(F)(F)F)cc23)C1 [EP-0040858]
[1]
  pEC50: ≤ 4.54
[2]
  Highest safe dose (cytotoxicity; no FO; safe means DAPI+ <20%): 25.0 µM
  Max % death with 1 μM FO: 6.6%

## C[C@@H]1CN([C@H]2COc3ccccc3[C@@H]2Nc2ncnc3[nH]c(C(F)(F)F)cc23)C[C@H](C)O1 [EP-0040942]
[1]
  pEC50: < 4.60
[2]
  Highest safe dose (cytotoxicity; no FO; safe means DAPI+ <20%): 25.0 µM
  Max % death with 1 μM FO: 4.7%

## C[C@@H]1CN([C@H]2COc3ccccc3[C@@H]2Nc2ncnc3[nH]c(C(F)(F)F)cc23)CCO1 [EP-0040955]
[1]
  pEC50: < 4.60
[2]
  Highest safe dose (cytotoxicity; no FO; safe means DAPI+ <20%): 25.0 µM
  Max % death with 1 μM FO: 3.4%

## C[C@@H]1CN([C@H]2COc3ccccc3[C@@H]2Nc2ncnc3[nH]c(C4CC4)cc23)CCO1 [EP-0040957]
[1]
  pEC50: 4.64
[2]
  Highest safe dose (cytotoxicity; no FO; safe means DAPI+ <20%): 25.0 µM
  Max % death with 1 μM FO: 3.8%

## C[C@H]1CN([C@H]2COc3ccccc3[C@@H]2Nc2ncnc3[nH]c(C(F)(F)F)cc23)CCO1 [EP-0040979]
[1]
  pEC50: < 4.60
[2]
  Highest safe dose (cytotoxicity; no FO; safe means DAPI+ <20%): 25.0 µM
  Max % death with 1 μM FO: 4.0%

## C[C@H]1CN([C@H]2COc3cc(F)ccc3[C@@H]2Nc2ncnc3[nH]c(C(F)(F)F)cc23)CCO1 [EP-0040981]
[1]
  pEC50: 5.61
[2]
  Highest safe dose (cytotoxicity; no FO; safe means DAPI+ <20%): 25.0 µM
  Max % death with 1 μM FO: 7.0%

## C[C@H]1CN([C@@H]2COc3cc(F)ccc3[C@H]2Nc2ncnc3[nH]c(C(F)(F)F)cc23)CCO1 [EP-0040982]
[1]
  pEC50: 5.12
[2]
  Highest safe dose (cytotoxicity; no FO; safe means DAPI+ <20%): 25.0 µM
  Max % death with 1 μM FO: 6.1%

## C[C@H]1CN([C@@H]2COc3ccccc3[C@H]2Nc2ncnc3[nH]c(C4CC4)cc23)CCO1 [EP-0041000]
[1]
  pEC50: 5.88
[2]
  Highest safe dose (cytotoxicity; no FO; safe means DAPI+ <20%): 25.0 µM
  Max % death with 1 μM FO: 6.5%

## FC(F)(F)c1cc2c(N[C@@H]3c4ccccc4OC[C@H]3C3CCCOC3)ncnc2[nH]1 (stereo partly drawn) [EP-0041003]
[1]
  pEC50: < 4.60
[2]
  Highest safe dose (cytotoxicity; no FO; safe means DAPI+ <20%): 25.0 µM
  Max % death with 1 μM FO: 5.3%

## C[C@@H]1CN([C@H]2COc3cc(F)ccc3[C@@H]2Nc2ncnc3[nH]c(C(F)(F)F)cc23)CCO1 [EP-0041087]
[1]
  pEC50: 5.03
[2]
  Highest safe dose (cytotoxicity; no FO; safe means DAPI+ <20%): 25.0 µM
  Max % death with 1 μM FO: 5.1%

## C[C@@H]1CN([C@@H]2COc3cc(F)ccc3[C@H]2Nc2ncnc3[nH]c(C4CC4)cc23)CCO1 [EP-0041123]
[1]
  pEC50: 4.96
[2]
  Highest safe dose (cytotoxicity; no FO; safe means DAPI+ <20%): 25.0 µM
  Max % death with 1 μM FO: 7.3%

## C[C@H]1CN([C@H]2COc3cc(F)ccc3[C@@H]2Nc2ncnc3[nH]c(C4CC4)cc23)CCO1 [EP-0041124]
[1]
  pEC50: 5.27
[2]
  Highest safe dose (cytotoxicity; no FO; safe means DAPI+ <20%): 25.0 µM
  Max % death with 1 μM FO: 12.7%

## OC(C1CCOCC1)[C@H]1COc2ccccc2[C@@H]1Nc1ncnc2[nH]c(C(F)(F)F)cc12 (stereo partly drawn) [EP-0041135]
[1]
  pEC50: 5.82
[2]
  Highest safe dose (cytotoxicity; no FO; safe means DAPI+ <20%): 25.0 µM
  Max % death with 1 μM FO: 15.7%

## CO[C@@H]1CCN([C@@H]2COc3ccccc3[C@H]2Nc2ncnc3[nH]c(C(F)(F)F)cc23)C1 [EP-0041162]
[1]
  pEC50: < 4.60
[2]
  Highest safe dose (cytotoxicity; no FO; safe means DAPI+ <20%): 25.0 µM
  Max % death with 1 μM FO: 4.2%
